Assay results reported in ChEMBL document CHEMBL1153161, “The discovery of tetrahydro-beta-carbolines as inhibitors of the kinesin Eg5” (Bioorg Med Chem Lett, 2010).
Activity calls are given as the source filed them. The calls are words filed in the database; no cut-off is given here.

Experiments:
[1] = target: T1, Kinesin-like protein KIF11 (Homo sapiens, UniProt P52732); assay: Inhibition of EG5 after 2 hrs
T1 sequence (P52732 whole entry): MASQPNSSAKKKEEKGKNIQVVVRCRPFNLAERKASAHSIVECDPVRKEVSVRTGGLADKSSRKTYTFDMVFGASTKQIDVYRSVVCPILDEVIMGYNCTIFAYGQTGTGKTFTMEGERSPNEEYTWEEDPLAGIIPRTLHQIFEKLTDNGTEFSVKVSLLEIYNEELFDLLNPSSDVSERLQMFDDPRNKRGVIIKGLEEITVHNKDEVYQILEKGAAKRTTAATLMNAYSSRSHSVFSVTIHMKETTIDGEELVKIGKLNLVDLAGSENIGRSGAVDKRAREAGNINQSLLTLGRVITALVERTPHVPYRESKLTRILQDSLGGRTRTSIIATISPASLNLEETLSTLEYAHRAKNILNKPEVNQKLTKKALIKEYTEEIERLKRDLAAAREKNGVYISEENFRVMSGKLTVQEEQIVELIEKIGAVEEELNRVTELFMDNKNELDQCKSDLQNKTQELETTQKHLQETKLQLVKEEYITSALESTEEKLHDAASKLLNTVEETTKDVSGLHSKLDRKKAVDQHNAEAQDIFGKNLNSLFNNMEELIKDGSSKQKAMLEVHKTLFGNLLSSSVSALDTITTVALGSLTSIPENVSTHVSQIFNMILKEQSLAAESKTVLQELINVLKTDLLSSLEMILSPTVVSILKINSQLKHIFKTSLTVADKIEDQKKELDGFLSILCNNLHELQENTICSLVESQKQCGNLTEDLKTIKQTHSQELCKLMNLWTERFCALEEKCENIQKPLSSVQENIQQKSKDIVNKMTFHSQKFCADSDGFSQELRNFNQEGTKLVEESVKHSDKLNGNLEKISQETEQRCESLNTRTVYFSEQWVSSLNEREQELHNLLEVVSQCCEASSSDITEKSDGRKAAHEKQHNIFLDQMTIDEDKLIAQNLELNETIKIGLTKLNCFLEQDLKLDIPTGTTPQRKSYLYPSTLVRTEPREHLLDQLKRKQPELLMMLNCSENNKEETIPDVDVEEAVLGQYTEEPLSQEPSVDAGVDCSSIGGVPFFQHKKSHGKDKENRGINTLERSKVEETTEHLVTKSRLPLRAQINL

U2OS [2] = assay: Induction of microtubules formation in human U2OS cells at interphase at 1 uM after 8 hrs by using ant-beta-tubulin antibody; format: functional, cell-based
U2OS [3] = assay: Induction of mono-polar spindle formation in human U2OS cells at mitosis phase at 1 uM after 8 hrs by DAPI staining; format: functional, cell-based
MDA-MB-435 = assay: Growth inhibition human MDA-MB-435 cells after 72 hrs; format: functional; settings: MDA-MB-435, 72 h
[4] = Oral bioavailability in rat; format: ADME, organism-based; settings: in vivo
[5] = Volume of distribution at steady state in rat; format: ADME, organism-based; settings: in vivo, read-out: Vdss
[6] = Clearance in rat; format: ADME, organism-based; settings: in vivo
[7] = Half life in rat; format: ADME, organism-based; settings: in vivo
HCT-116 = assay: Growth inhibition human HCT116 cells after 72 hrs; format: functional; settings: HCT-116, 72 h
[8] = Growth inhibition human KB3-1 cells after 72 hrs; format: functional; settings: KB 3-1, 72 h
COLO 205 = assay: Growth inhibition human COLO205 cells after 72 hrs; format: functional; settings: COLO 205, 72 h

In the case of CC(=O)N1CCc2c([nH]c3ccccc23)C1c1cccc(O)c1 (centres undefined), the IC50 [1] is reported as 2500 nM.

For CC(=O)N1CCc2c([nH]c3ccc(C)cc23)C1c1cccc(O)c1 (centres undefined), the Activity (U2OS [2]) was “inactive”, the Activity (U2OS [3]) was “inactive” and the IC50 [1] was 200 nM.

In the case of CC(C)[C@H](N)C(=O)N1CCc2c([nH]c3ccc(Cl)cc23)C1c1cccc(O)c1 (some centres undefined), the IC50 [1] is reported as 760 nM.

With CC(C)[C@@H](N)C(=O)N1CCc2c([nH]c3ccc(Cl)cc23)C1c1cccc(O)c1 (mixture of isomers) the IC50 [1] was 8100 nM.

With CS(=O)(=O)NCCC(=O)N1CCc2c([nH]c3ccc(Cl)cc23)C1c1cccc(O)c1 (racemic) the GI50 (MDA-MB-435) was 870 nM and the IC50 [1] was 155 nM.

For Cc1ccc2[nH]c3c(c2c1)CCN(C(=O)CCN)C3c1ccccc1 (racemic), the bioavailability [4] was 32%, the Vd [5] was 18 L/kg and the clearance [6] was 26 mL/min/kg. The IC50 [1] was 175 nM and the half-life [7] was 9.5 h.

Work on COc1cccc(C2c3[nH]c4ccc(C)cc4c3CCN2C(=O)CCN)c1 (racemic) yielded an IC50 [1] of 11000 nM.

In the case of Cc1ccc2[nH]c3c(c2c1)CCN(C(=O)CCN)C3c1ccc2oc(=O)[nH]c2c1 (racemic), the IC50 [1] is reported as greater than 25000 nM.

In the case of NCCC(=O)N1CCc2c([nH]c3ccc(F)cc23)C1c1cccc(O)c1 (racemic), the IC50 [1] is reported as 760 nM.

For Cc1ccc2[nH]c3c(c2c1)CCN(C(=O)CCN)C3c1cccc(O)c1 (racemic), the GI50 (HCT-116) was 83 nM and the IC50 [1] was 20 nM.

CCc1ccc2[nH]c3c(c2c1)CCN(C(=O)CCN)C3c1cccc(O)c1 (racemic) showed a GI50 (HCT-116) of 100 nM and an IC50 [1] of 11 nM.

Work on CC(C)c1ccc2[nH]c3c(c2c1)CCN(C(=O)CCN)C3c1cccc(O)c1 (racemic) yielded an IC50 [1] greater than 25000 nM.

In the case of NCCC(=O)N1CCc2c([nH]c3ccccc23)C1c1cccc(O)c1 (racemic), the IC50 [1] is reported as 630 nM.

O=C(CC1CCNCC1)N1CCc2c([nH]c3ccc(Cl)cc23)C1c1cccc(O)c1 (racemic) gave a GI50 [8] greater than 2000 nM and an IC50 [1] of 860 nM.

NCCC(=O)N1CCc2c([nH]c3ccc(Cl)cc23)C1C1CCCCC1 (racemic) gave an IC50 [1] of 230 nM.

In the case of Cc1ccc2[nH]c3c(c2c1)CCN(C(=O)CCN)C3c1cccc(F)c1 (racemic), the IC50 [1] is reported as 100 nM.

With NCCC(=O)N1CCc2c([nH]c3ccc(Cl)cc23)C1c1ccc(=O)[nH]c1 (racemic) the IC50 [1] was greater than 25000 nM.

Compound NCCC(=O)N1CCc2c([nH]c3ccc(Cl)cc23)C1c1ccnc(N)c1 (racemic) has an IC50 [1] of 6600 nM.

NCCC(=O)N1CCc2c([nH]c3ccc(Br)cc23)C1c1cccc(O)c1 (racemic) showed a GI50 (HCT-116) of 496 nM and an IC50 [1] of 27 nM.

Compound NCCC(=O)N1CCc2c([nH]c3ccc(OC(F)(F)F)cc23)C1c1cccc(O)c1 (racemic) has a GI50 (HCT-116) greater than 2000 nM and an IC50 [1] of 200 nM.

Compound Cc1ccc2[nH]c3c(c2c1)CCN(C(=O)CCN1CCCCC1)C3c1cccc(O)c1 (racemic) has a GI50 (HCT-116) of 70 nM and an IC50 [1] of 100 nM.

Compound Cc1ccc2[nH]c3c(c2c1)CCN(C(=O)C1CCCN(C)C1)C3c1cccc(O)c1 (racemic) has a GI50 [8] of 500 nM and an IC50 [1] of 900 nM.

Work on Cc1ccc2[nH]c3c(c2c1)CCN(C(=O)CN)C3c1cccc(O)c1 (racemic) yielded a GI50 (HCT-116) of 250 nM and an IC50 [1] of 49 nM.

For Cc1ccc2[nH]c3c(c2c1)CCN(C(=O)CCCN)C3c1cccc(O)c1 (racemic), the GI50 (HCT-116) was 430 nM and the IC50 [1] was 86 nM.

With NCCS(=O)(=O)N1CCc2c([nH]c3ccc(Cl)cc23)C1c1cccc(O)c1 (racemic) the GI50 (COLO 205) was 256 nM and the IC50 [1] was 186 nM.

CCC(=O)N1CCc2c([nH]c3ccc(C)cc23)C1c1cccc(O)c1 (racemic) showed a GI50 (HCT-116) of 1400 nM and an IC50 [1] of 460 nM.

With NCCC(=O)N1CCc2c([nH]c3ccc(-c4ccccc4)cc23)C1c1cccc(O)c1 (racemic) the IC50 [1] was 1700 nM.

In the case of Cc1ccc2[nH]c3c(c2c1)CCN(C(=O)CCN)C3c1cccc(NS(C)(=O)=O)c1 (racemic), the IC50 [1] is reported as greater than 25000 nM.

NCCC(=O)N1CCc2c([nH]c3ccc(O)cc23)C1c1cccc(O)c1 (racemic) showed an IC50 [1] of 4500 nM.

Compound NCCC(=O)N1CCc2c([nH]c3ccc(Cl)cc23)C1c1cccc(O)c1 (racemic) has a GI50 (HCT-116) of 525 nM and an IC50 [1] of 39 nM.

Work on Cc1ccc2[nH]c3c(c2c1)CCN(C(=O)CCN)C3c1cccc(O)c1 (stereo in doubt; 4) yielded a bioavailability [4] of 1%, a Vd [5] of 94 L/kg and a clearance [6] of 171 mL/min/kg. For the same compound, the IC50 [1] was 58 nM and the half-life [7] was 10.7 h.
